Molecules are shown by their SMILES.

This series is described as follows: Human HepG2 cell viability assay in 384 well format. The class given is toxicity, cell-based. More on the design: dose 125 nL, time 70.5 hour; cytotoxicity at 70.5 h: concentration not given beside the values. The conditions noted are these: HepG2 cells, read-out: Inhibition.
For `CCN(CC)C(=O)CNC(=O)N1CCC(c2ccc(OC)cc2)C1` (centres undefined), the cytotoxicity at 70.5 h stood at 12.9%.

Consider `C1CCC(NC2CCCN(Cc3noc(C4CC4)n3)C2)C1` (centres undefined), for which the cytotoxicity at 70.5 h was -15.1%.

For `COc1cccc(C2(CNC(C)c3nnc(C)o3)CCCC2)c1` (centres undefined), the cytotoxicity at 70.5 h is -13.9%.

With `O=C(c1ccn(-c2cccc(F)c2)n1)N1CCN(CCO)CC1`, the cytotoxicity at 70.5 h was -5.78%.

Turning to `CCc1noc(CNc2c(F)cccc2-n2cccn2)n1`, the cytotoxicity at 70.5 h was -8.2%.

For the compound `CC(C)CNC(=O)Nc1cccc(CN2CCOC2=O)c1`, the cytotoxicity at 70.5 h was -6.71%.

With `Cc1cccc(NC(=O)C2CCCN2C(=O)c2ccco2)c1C` (centres undefined), the cytotoxicity at 70.5 h is 11.4%.

In the case of `O=C1CN(Cc2nnc(-c3ccc(Cl)cc3)o2)CCN1`, the cytotoxicity at 70.5 h is -9.87%.

Turning to `CC(Cn1cccn1)NC(=O)Nc1ccc(N2CCCCC2)nc1` (centres undefined), the cytotoxicity at 70.5 h was -7.26%.

Take `Cc1ccc(NC(=O)NC(C)Cn2cccn2)cc1` (centres undefined): the cytotoxicity at 70.5 h was -11.9%.

Consider `CC(NC(=O)N(C)Cc1ccc2c(c1)OCCO2)c1nncn1C` (centres undefined), for which the cytotoxicity at 70.5 h is -0.921%.

On to `Cc1cc(NC(=O)NCCc2ccccc2)n(C)n1`, for which the cytotoxicity at 70.5 h is -7.09%.

Regarding `CC(C)(O)CN1CCN(C(=O)c2ccn(-c3cccc(F)c3)n2)CC1`, the cytotoxicity at 70.5 h is -4.39%.

Regarding `CCC(O)CN1CCN(C(=O)c2ccn(-c3cccc(F)c3)n2)CC1` (centres undefined), the cytotoxicity at 70.5 h was -5.3%.

For `COC(=O)c1ccc(NC(=O)[C@@H]2CCCN2C(=O)c2ccco2)s1`, the cytotoxicity at 70.5 h is -7.02%.

As for `Cc1cc(NC(=O)CN2CCc3nn(C)c(=O)cc3C2)no1`, the cytotoxicity at 70.5 h was -9.67%.

As to `CSC(C)(C)CNC(=O)Nc1cccc(-c2nccn2C)c1`, the cytotoxicity at 70.5 h is -3.46%.

For the compound `O=C(CSc1ccc2c(c1)OCCO2)NS(=O)(=O)c1ccccc1Cl`, the cytotoxicity at 70.5 h was -4.64%.

On to `O=C(CSc1ccc2c(c1)OCCO2)NS(=O)(=O)c1ccccc1Br`, for which the cytotoxicity at 70.5 h is -6.54%.

As to `COc1ccc(-c2nc(CN3CCCS3(=O)=O)co2)cc1`, the cytotoxicity at 70.5 h is 14.5%.

Consider `CN1CCN(c2nc(-c3cnn(C)c3)cs2)CC1`, for which the cytotoxicity at 70.5 h is -6.42%.

Regarding `CC(C)(C)c1nnc(CNc2c(F)cccc2-n2cccn2)o1`, the cytotoxicity at 70.5 h was -8.76%.

On to `O=S1(=O)CCCN1Cc1coc(-c2ccc(C(F)(F)F)cc2)n1`, for which the cytotoxicity at 70.5 h is 11%.

For the compound `CCC(CC)C(O)CNC(=O)Nc1cccc(-c2nccn2C)c1` (centres undefined), the cytotoxicity at 70.5 h is -3.63%.

On to `CC(=O)NCCc1ccc(S(=O)(=O)N(C)C(C)CC(C)C)s1` (centres undefined), for which the cytotoxicity at 70.5 h is -7.26%.

For `OCCN1CCN(Cc2cc3c(cc2Br)OCCO3)CC1`, the cytotoxicity at 70.5 h came to 20.1%.

As to `CCc1n[nH]c(C2CN(C(=O)Cc3ccc(C)nc3)CCO2)n1` (centres undefined), the cytotoxicity at 70.5 h came to 9.01%.

Regarding `CC(C#N)CSc1ccccc1NCC(=O)NC(C1CC1)C1CC1` (centres undefined), the cytotoxicity at 70.5 h is 8.68%.

Turning to `CCNc1nnc(SCC(=O)N2CCN(Cc3ccc(Cl)s3)CC2)s1`, the cytotoxicity at 70.5 h was -0.322%.

With `Cn1cnc(S(=O)(=O)N2CCOCC2)c1Cl`, the cytotoxicity at 70.5 h was -3.62%.

As for `CN1CCN(S(=O)(=O)c2ncn(C)c2Cl)CC1`, the cytotoxicity at 70.5 h was -5.44%.

Regarding `CC(C)N1CCN(S(=O)(=O)c2ncn(C)c2Cl)CC1`, the cytotoxicity at 70.5 h was -4.74%.

Take `O=C1NCCCCC1Sc1nnc(N2CCCC2)n1C1CC1` (centres undefined): the cytotoxicity at 70.5 h was 6.7%.

With `CC1CCN(CCNC(=O)C2CCN(C(=O)C(C)(C)C)CC2)CC1`, the cytotoxicity at 70.5 h was -3.74%.

On to `CC(=O)N1CCC(C(=O)NCCN2CCCC(C)C2)CC1` (centres undefined), for which the cytotoxicity at 70.5 h is -7.29%.

In the case of `COc1ccc(NC(C)C(=O)N2CCCC2)cn1` (centres undefined), the cytotoxicity at 70.5 h was -1.03%.

As for `NC(=O)COc1ccc(CNC(=O)CN2CCc3ccccc32)cc1`, the cytotoxicity at 70.5 h is 0.272%.

As to `CC(=O)NCCNC(=O)Nc1cccc(Cl)c1SC(F)F`, the cytotoxicity at 70.5 h was -0.195%.

For the compound `CC(C#N)CSc1ccccc1NCC(=O)NC(=O)NC(C)(C)C` (centres undefined), the cytotoxicity at 70.5 h is -2.56%.

As for `CC(C#N)CSc1ccccc1NCC(=O)NCc1cccs1` (centres undefined), the cytotoxicity at 70.5 h was 0.858%.

Regarding `CCNC(=O)CNC(=O)Nc1cccc(Cl)c1SC(F)F`, the cytotoxicity at 70.5 h was 0.0144%.

`NS(=O)(=O)N1CCc2ccc(NC(=O)Cc3ccccc3F)cc21`: the cytotoxicity at 70.5 h was found to be 22.4%.

As for `Cc1nc(C2CCCN(C(=O)c3csc(C)n3)C2)no1` (centres undefined), the cytotoxicity at 70.5 h was 4.29%.

Take `Cc1nc(CC(=O)N2CCOC(c3nc(C(C)(C)C)n[nH]3)C2)cs1` (centres undefined): the cytotoxicity at 70.5 h came out at 20.6%.

As for `Cc1ccn(-c2ccccc2NCc2cscn2)n1`, the cytotoxicity at 70.5 h is 10.6%.

Take `O=C(Nc1ccnc(OC2CCOC2)c1)c1ccc(F)cc1Cl` (centres undefined): the cytotoxicity at 70.5 h came to 0.257%.

Take `CN(C)CCN(Cc1ccc(Cl)cc1)C(=O)c1cnccn1`: the cytotoxicity at 70.5 h is 3.24%.

As for `Cc1cc(CNc2ccc(C(F)(F)F)cc2)no1`, the cytotoxicity at 70.5 h is -7.03%.

As for `Cn1cc(CNC2CCOCC2)c(-c2cc3ccccc3o2)n1`, the cytotoxicity at 70.5 h is -5.58%.

Regarding `CCOc1ccc(C(F)(F)F)cc1NCc1cc(C)on1`, the cytotoxicity at 70.5 h is 26.7%.

As for `Cn1[nH]c(C2CCC2)c(-c2ccc3c(c2)OCO3)c1=N`, the cytotoxicity at 70.5 h is -3.82%.

For `CCOc1ccc(C(F)(F)F)cc1NCc1nc(C)c(C)o1`, the cytotoxicity at 70.5 h was -2.62%.

`O=C(Cn1cnnn1)NCC1(O)CCCc2ccccc21` (centres undefined): the cytotoxicity at 70.5 h is -6.92%.

Consider `Cn1cc(C(C)(O)CNC(=O)c2cc(Br)cn2C)cn1` (centres undefined), for which the cytotoxicity at 70.5 h was determined as 7.26%.

Regarding `COCCN1CCN(Cc2nnc(-c3occc3C)o2)CC1`, the cytotoxicity at 70.5 h was -6.39%.

Turning to `Cn1cc(Br)cc1C(=O)NCC(C)(O)c1ccsc1` (centres undefined), the cytotoxicity at 70.5 h is -9.72%.

With `CC(C)N(CCS(C)(=O)=O)Cc1csc(Cc2ccc(Cl)cc2)n1`, the cytotoxicity at 70.5 h is 3.51%.

As to `CC(C)N(CCS(C)(=O)=O)Cc1csc(-c2ccccc2F)n1`, the cytotoxicity at 70.5 h was -13.1%.

Consider `O=C(CN1CCOC(Cn2cncn2)C1)NC(C1CC1)C1CC1` (centres undefined), for which the cytotoxicity at 70.5 h came to 9.73%.

For `c1ccc(N2CCC(NCCc3ccc(-n4cccn4)cc3)CC2)nc1`, the cytotoxicity at 70.5 h was 21.5%.

As for `CSCC(CCO)NC(=O)c1cccc(F)c1Cl` (centres undefined), the cytotoxicity at 70.5 h is 24.5%.

As to `Cn1nc(Br)c2c(NCCNc3ncccn3)ncnc21`, the cytotoxicity at 70.5 h is -21.3%.

With `Cc1cc(S(C)(=O)=O)c(C)c(S(=O)(=O)N2CCCC(C)C2)c1` (centres undefined), the cytotoxicity at 70.5 h was -7.71%.

With `Cn1nc2c(cc1=O)CN(CCOc1ccccc1C#N)CC2`, the cytotoxicity at 70.5 h was found to be 35%.

On to `CC(C)n1nc2c(cc1=O)CN(CCOc1ccc(C#N)cc1)CC2`, for which the cytotoxicity at 70.5 h is -12.5%.

Regarding `COCC(=O)N1CCN(Cc2cc(F)cc(Br)c2)CC1`, the cytotoxicity at 70.5 h is -6.59%.

For `CCc1n[nH]c(=O)c(C(=O)N2CCSCC2)c1CC`, the cytotoxicity at 70.5 h was -9.39%.

On to `Cc1ccc(C(C)NC(=O)N2CCNC(=O)CC2)cc1F` (centres undefined), for which the cytotoxicity at 70.5 h is -17.7%.

As for `Cc1nccn1-c1ccc(C(C)Nc2cnn(C)c(=O)c2Cl)cc1` (centres undefined), the cytotoxicity at 70.5 h came out at 9.7%.

For the compound `CCC(NC(=O)NCc1cccc(N(C)C)n1)c1ccccc1OC` (centres undefined), the cytotoxicity at 70.5 h was -7.5%.

As to `CCCC(NC(=O)NCc1cccc(N(C)C)n1)c1ccccn1` (centres undefined), the cytotoxicity at 70.5 h is -18.8%.

As for `COCC(NC(=O)c1cn(-c2cccc(Cl)c2F)nn1)C1CC1` (centres undefined), the cytotoxicity at 70.5 h is -0.579%.

With `COCC(C)(C#N)NC(=O)c1cn(-c2cccc(Cl)c2F)nn1` (centres undefined), the cytotoxicity at 70.5 h was -10.4%.

In the case of `COCCCNC(=O)CN1CCC(c2ccccc2)C1` (centres undefined), the cytotoxicity at 70.5 h is -7.32%.

In the case of `CSCC(CCO)NC(=O)c1cccc(Cl)c1F` (centres undefined), the cytotoxicity at 70.5 h is -16.7%.

For the compound `COC(=O)CN1CCSC(c2ccccc2)C1` (centres undefined), the cytotoxicity at 70.5 h was -13.2%.

As to `COCCOCC(=O)Nc1cccc(CN(C)C(C)=O)c1`, the cytotoxicity at 70.5 h was 27.5%.

Turning to `O=C(NCC1CCCO1)c1csc(Cc2ccccc2)n1` (centres undefined), the cytotoxicity at 70.5 h is 50.7%.

As for `COc1ccccc1-c1cc(NC(=O)CC2CCS(=O)(=O)C2)[nH]n1` (centres undefined), the cytotoxicity at 70.5 h was -9.57%.

Regarding `COCCN1CCN(CC(=O)N(C)Cc2ccsc2)CC1C` (centres undefined), the cytotoxicity at 70.5 h is -7.6%.

`CS(=O)(=O)CCNCc1ccc(OCc2ccccn2)cc1`: the cytotoxicity at 70.5 h is 0.418%.

In the case of `C[S+]([O-])CCNCc1ccc(OCc2cscn2)cc1` (centres undefined), the cytotoxicity at 70.5 h was 1.77%.

With `Cc1ccc(-n2ccnc2)c(C(=O)NCCOCC2CCCO2)c1` (centres undefined), the cytotoxicity at 70.5 h was -1.48%.

As for `CN1CCC(NC(=O)Nc2ccc(F)c(-n3cccc3)c2)C1=O` (centres undefined), the cytotoxicity at 70.5 h is -12.5%.

As to `CN1CCC(NC(=O)Nc2ccc(Br)c(F)c2)C1=O` (centres undefined), the cytotoxicity at 70.5 h is 1.65%.

Regarding `CC(C)n1cc2cc(NC(=O)CCS(C)(=O)=O)ccc2n1`, the cytotoxicity at 70.5 h is 23.6%.

As to `O=C1N(CC2CC2)C2(CCSCC2)NC12CCCC2`, the cytotoxicity at 70.5 h is 30.4%.

As to `O=C(c1cccc2cc[nH]c12)N1CCC2(CCOC2)C1` (centres undefined), the cytotoxicity at 70.5 h worked out at 1.91%.

As to `CC(=O)Nc1ccc2nn(C(C)C)cc2c1`, the cytotoxicity at 70.5 h was -8.47%.

Regarding `CN(C)c1nccc(CNS(=O)(=O)c2ccc(F)c(Cl)c2)n1`, the cytotoxicity at 70.5 h was -5.5%.

In the case of `Cc1cc(F)c(S(=O)(=O)NCc2ccnc(N(C)C)n2)cc1F`, the cytotoxicity at 70.5 h turned out to be 29.1%.

Turning to `COCCN1CCN(CC(=O)N(C)Cc2cccc(F)c2)CC1C` (centres undefined), the cytotoxicity at 70.5 h is 0.133%.

Consider `O=C(c1cccc2[nH]ccc12)N1CCC2(CCOC2)C1` (centres undefined), for which the cytotoxicity at 70.5 h was 2.34%.

Take `COCCN1CCN(CC(=O)N(C)Cc2ccsc2)CC1`: the cytotoxicity at 70.5 h was -6.03%.

Regarding `C1CCC(NCCN2CCOCC2)C1`, the cytotoxicity at 70.5 h was 16.9%.

As for `CCN(CC)C(=O)N1CCN(C2=NCC(C)S2)CC1` (centres undefined), the cytotoxicity at 70.5 h was -9.33%.

Consider `COCCOc1ccccc1CNCC1COC2(CCCC2)O1` (centres undefined), for which the cytotoxicity at 70.5 h amounted to 0.252%.

Take `O=C(COCC1CC1)Nc1cc(-c2ccc(Br)s2)n[nH]1`: the cytotoxicity at 70.5 h is -5.77%.

For the compound `Cc1cc(C(=O)NCCN2CCCCC2)nn1C(C)(C)C`, the cytotoxicity at 70.5 h was -18%.

As to `CC(NC(=O)NCc1cccnc1N(C)C)c1ccc(F)cc1` (centres undefined), the cytotoxicity at 70.5 h was -23.2%.

With `O=C(NCc1cccnc1N1CCCCC1)c1ccc2[nH]nnc2c1`, the cytotoxicity at 70.5 h was 41.6%.

With `CC(=O)NCC1CCCN(C(=O)Cc2c(C)noc2C)C1` (centres undefined), the cytotoxicity at 70.5 h was -22.9%.

With `Cc1noc(C)c1CC(=O)N1CCCC(n2ccnc2C)C1` (centres undefined), the cytotoxicity at 70.5 h is -15.6%.

As for `CN(CCc1ccncc1)c1cnn(C)c(=O)c1Br`, the cytotoxicity at 70.5 h is -24.9%.

Source of the values: ChEMBL document CHEMBL3507680, “University of Dundee, Gates Library screen for HepG2 cell viability”.
